Source: the supplement of paper PMC11368000

Assays:
Conditions in all cases: exposure time: 90 min
1083 [1] = donor line of iPSC-derived cardiomyocytes; assay: POD (EC10) for decrease in total cell number (cytotoxicity) vs vehicle; higher = less potent (higher point of departure)
Summary of the method: (§1)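 Cardiomyocytes derived from human iPSCs of 16 donors were grown for 14 days in 384-well plates and then treated for 90 min at 37 °C with final concentrations of 0.1, 1, 10 and 100 µM in 0.5% DMSO. Once the Ca2+ flux read was done, the cells were stained for 15 min with Hoechst 33342 (2.2 µg/mL) and MitoTracker Orange, imaged at 10× on an ImageXpress Micro Confocal, and their nuclei counted per field in MetaXpress. Hierarchical Bayesian Hill fits to vehicle-normalised counts gave donor-specific cytotoxicity points of departure. These were set at a 10% decrease in counts.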

1565 = donor line of iPSC-derived cardiomyocytes; assay: as above
Summary of the method: as §1

1309 [2] = donor line of iPSC-derived cardiomyocytes; assay: as above
Summary of the method: as §1

1531 = donor line of iPSC-derived cardiomyocytes; assay: as above
Summary of the method: as §1

1516 = donor line of iPSC-derived cardiomyocytes; assay: as above
Summary of the method: as §1

30171 = donor line of iPSC-derived cardiomyocytes; assay: as above
Summary of the method: as §1

11235 = donor line of iPSC-derived cardiomyocytes; assay: as above
Summary of the method: as §1

1118 [3] = donor line of iPSC-derived cardiomyocytes; assay: as above
Summary of the method: as §1

1368 = donor line of iPSC-derived cardiomyocytes; assay: as above
Summary of the method: as §1

1535 [4] = donor line of iPSC-derived cardiomyocytes; assay: as above
Summary of the method: as §1

20084 [5] = donor line of iPSC-derived cardiomyocytes; assay: as above
Summary of the method: as §1

20032 [6] = donor line of iPSC-derived cardiomyocytes; assay: as above
Summary of the method: as §1

30145 = donor line of iPSC-derived cardiomyocytes; assay: POD (EC05) for increase in Ca2+ transient decay-to-rise ratio (QT prolongation) vs vehicle; higher = less potent (higher point of departure)
Description: (§2)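 Human iPSC-derived cardiomyocytes from 16 donors were exposed for 90 min at 37 °C to each PFAS at 0.1, 1, 10 and 100 µM in 0.5% DMSO, 384-well plates. Kinetic Ca2+ flux (FLIPR) and Hoechst nuclei counts were normalised to vehicle wells and fitted with a hierarchical Bayesian Hill model to give donor-specific PODs: EC05 for beat-rate increase or decrease and for decay-to-rise ratio increase (QT proxy), EC95 for peak-frequency loss (asystole), EC10 for total cell number loss. 0.03 µM is the lower bound.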

1083 [7] = assay: as above
Description: as §2

1309 [8] = assay: as above
Description: as §2

1392 = donor line of iPSC-derived cardiomyocytes; assay: as above
Description: as §2

1118 [9] = assay: as above
Description: as §2

1535 [10] = assay: as above
Description: as §2

20084 [11] = assay: as above
Description: as §2

20032 [12] = assay: as above
Description: as §2

| SMILES | POD vs vehicle 1083 [1] [µM] | POD vs vehicle 1565 [µM] | POD vs vehicle 1309 [2] [µM] | POD vs vehicle 1531 [µM] | POD vs vehicle 1516 [µM] | POD vs vehicle 30171 [µM] | POD vs vehicle 11235 [µM] | POD vs vehicle 1118 [3] [µM] | POD vs vehicle 1368 [µM] | POD vs vehicle 1535 [4] [µM] | POD vs vehicle 20084 [5] [µM] | POD vs vehicle 20032 [6] [µM] | POD vs vehicle 30145 [µM] | POD vs vehicle 1083 [7] [µM] | POD vs vehicle 1309 [8] [µM] | POD vs vehicle 1392 [µM] | POD vs vehicle 1118 [9] [µM] | POD vs vehicle 1535 [10] [µM] | POD vs vehicle 20084 [11] [µM] | POD vs vehicle 20032 [12] [µM] |
| --- | --- | --- | --- | --- | --- | --- | --- | --- | --- | --- | --- | --- | --- | --- | --- | --- | --- | --- | --- | --- |
| O=C(O)C(F)(F)C(F)(F)C(F)(F)OC(F)(C(F)(F)F)C(F)(F)F [Perfluoro-4-isopropoxybutanoic_acid] | > 100 | > 100 | > 100 | > 100 | > 100 | > 100 | > 100 | > 100 | > 100 | > 100 | > 100 | > 100 | > 100 | > 100 | > 100 | > 100 | > 100 | > 100 | > 100 | > 100 |
| O=C(O)C(F)(F)C(F)(F)C(F)(F)C(F)(F)C(F)(F)F [Perfluorohexanoic_acid] | > 100 | > 100 | > 100 | > 100 | > 100 | > 100 | > 100 | > 100 | > 100 | > 100 | > 100 | > 100 | > 100 | > 100 | > 100 | > 100 | > 100 | > 100 | > 100 | > 100 |
| O=S(=O)(O)CCC(F)(F)C(F)(F)C(F)(F)C(F)(F)C(F)(F)C(F)(F)F [6:2 Fluorotelomer sulfonic acid] | > 100 | > 100 | > 100 | > 100 | > 100 | > 100 | > 100 | > 100 | > 100 | > 100 | > 100 | > 100 | > 100 | > 100 | > 100 | > 100 | > 100 | > 100 | > 100 | > 100 |
| O=C(O)CCC(F)(F)C(F)(F)C(F)(F)C(F)(F)C(F)(F)F [2H,2H,3H,3H-Perfluorooctanoic_acid] | > 100 | > 100 | > 100 | > 100 | > 100 | > 100 | > 100 | > 100 | > 100 | > 100 | > 100 | > 100 | > 100 | > 100 | > 100 | > 100 | > 100 | > 100 | > 100 | 48.4 |
| NC(=O)C(F)(F)C(F)(F)C(F)(F)C(F)(F)F [Nonafluoropentanamide] | > 100 | > 100 | > 100 | > 100 | > 100 | > 100 | > 100 | > 100 | > 100 | > 100 | > 100 | > 100 | > 100 | > 100 | > 100 | > 100 | > 100 | > 100 | > 100 | 0.52 |
| O=C(O)C(F)(F)C(F)(F)OC(F)(F)F [Perfluoro-3-methoxypropanoic_acid] | > 100 | > 100 | > 100 | > 100 | > 100 | > 100 | > 100 | > 100 | > 100 | > 100 | > 100 | > 100 | > 100 | > 100 | > 100 | > 100 | > 100 | > 100 | > 100 | > 100 |
| O=C(O)C(F)(F)C(F)(F)C(F)(F)OC(F)(F)F [Perfluoro(4-methoxybutanoic)_acid] | > 100 | > 100 | > 100 | > 100 | > 100 | > 100 | > 100 | > 100 | > 100 | > 100 | > 100 | > 100 | > 100 | > 100 | > 100 | > 100 | > 100 | > 100 | > 100 | > 100 |
| O=S(=O)(O)CCC(F)(F)C(F)(F)C(F)(F)C(F)(F)F [4:2 Fluorotelomer sulfonic acid] | > 100 | > 100 | > 100 | > 100 | > 100 | > 100 | > 100 | > 100 | > 100 | > 100 | > 100 | > 100 | > 100 | > 100 | > 100 | > 100 | > 100 | > 100 | > 100 | > 100 |
| O=P(O)(O)CCC(F)(F)C(F)(F)C(F)(F)C(F)(F)C(F)(F)C(F)(F)C(F)(F)C(F)(F)F [((Perfluorooctyl)ethyl)phosphonic_acid] | > 100 | > 100 | > 100 | > 100 | > 100 | > 100 | > 100 | > 100 | > 100 | > 100 | > 100 | > 100 | > 100 | > 100 | > 100 | > 100 | > 100 | > 100 | > 100 | > 100 |
| OCCC(F)(F)C(F)(F)C(F)(F)C(F)(F)C(F)(F)C(F)(F)F [6:2 Fluorotelomer alcohol] | > 100 | > 100 | > 100 | > 100 | > 100 | > 100 | > 100 | > 100 | > 100 | > 100 | > 100 | > 100 | > 100 | > 100 | > 100 | > 100 | > 100 | > 100 | > 100 | > 100 |
| O=C(O)C(F)(F)C(F)(F)F [Perfluoropropanoic_acid] | > 100 | > 100 | > 100 | > 100 | > 100 | > 100 | > 100 | > 100 | > 100 | > 100 | > 100 | > 100 | > 100 | > 100 | > 100 | > 100 | > 100 | > 100 | > 100 | > 100 |
| O=C(O)C(F)(F)C(F)(F)C(F)(F)F [Perfluorobutanoic_acid] | > 100 | > 100 | > 100 | > 100 | > 100 | > 100 | > 100 | > 100 | > 100 | > 100 | > 100 | > 100 | > 100 | > 100 | > 100 | > 100 | > 100 | > 100 | > 100 | > 100 |
| NC(=O)C(F)(F)C(F)(F)C(F)(F)C(F)F | > 100 | > 100 | > 100 | > 100 | > 100 | 0.93 | > 100 | > 100 | > 100 | > 100 | > 100 | > 100 | > 100 | > 100 | > 100 | > 100 | 7.19 | > 100 | > 100 | 0.131 |
| CN(CCO)S(=O)(=O)C(F)(F)C(F)(F)C(F)(F)C(F)(F)C(F)(F)C(F)(F)C(F)(F)C(F)(F)F [N-Methyl-N-(2-hydroxyethyl)perfluorooctanesulfonamide] | > 100 | > 100 | > 100 | > 100 | > 100 | > 100 | > 100 | > 100 | > 100 | > 100 | > 100 | > 100 | > 100 | > 100 | > 100 | > 100 | > 100 | > 100 | > 100 | > 100 |
| OCC(F)(F)C(F)(F)C(F)(F)C(F)(F)C(F)(F)C(F)F [Dodecafluoroheptanol] | > 100 | > 100 | > 100 | > 100 | > 100 | 46.4 | 85.3 | 95.5 | > 100 | > 100 | > 100 | 58.4 | > 100 | > 100 | > 100 | > 100 | > 100 | > 100 | > 100 | 0.504 |
| O=C(O)C=CC(F)(C(F)(F)F)C(F)(F)F [3-(Perfluoroisopropyl)-2-propenoic_acid] | > 100 | > 100 | > 100 | > 100 | > 100 | > 100 | > 100 | > 100 | > 100 | > 100 | > 100 | > 100 | > 100 | > 100 | > 100 | > 100 | > 100 | > 100 | > 100 | > 100 |
| OCC(F)(F)C(F)(F)C(F)(F)F [Heptafluorobutanol] | > 100 | > 100 | > 100 | > 100 | > 100 | > 100 | > 100 | > 100 | > 100 | > 100 | > 100 | > 100 | > 100 | > 100 | > 100 | > 100 | > 100 | > 100 | > 100 | > 100 |
| O=C(CC(=O)C(F)(F)C(F)(F)F)C(F)(F)F [3H,3H-Perfluoro-2,4-hexanedione] | > 100 | > 100 | > 100 | > 100 | 74.4 | > 100 | > 100 | 25.1 | > 100 | > 100 | > 100 | > 100 | > 100 | > 100 | > 100 | > 100 | > 100 | > 100 | > 100 | > 100 |
